This is an account of results in patent US20120115157A1, “Methods for Screening for Antibiotic Compounds” (Trustees of Dartmouth College, priority 2009, published 2012).

For this test, the system named is S. aureus. The test is described as follows: Minimum Inhibitory Concentration (MIC), inhibition of growth of S. aureus in vitro. It is filed as cell-based. Conditions: Staphylococcus aureus. From the text: The next step will be to test the drugs for activity in vitro to inhibit growth of bacterial cells and determination of minimum inhibitory concentration (MIC) doses for the drugs. Determining MIC doses is a standard assay in development of antibiotic drugs and methods are well known in the art. For example, MIC can be determined according to the Clinical and Laboratory Standards Institute guidelines.
Once the compounds of the present invention were identified through the MazEF screening assay described above, the activity of the compounds to inhibit growth of S. aureus in vitro was tested using the standard method of determining Minimum Inhibitory Concentrations (MICS). Such methods are well known to those of skill in the art since determining MIC doses is a standard assay in development of antibiotic drugs. For example, MIC values can be determined according to the Clinical and Laboratory Standards Institute guidelines. In Table 1, the MIC values are presented for each of the ten compounds identified through the MazEF screening assay as having potential for antibiotic activity in S. aureus.

The structures appear in SMILES notation. ≈ marks a conversion by molar mass, not a printed value.

By MIC is commonly meant the lowest concentration found to suppress growth. Low values mean a more susceptible organism, high ones a less susceptible organism. In turn, `CN(C)c1ccc(/C=C2\SC(=S)N(C(Cc3ccccc3)C(=O)O)C2=O)cc1` (centres unmarked) [Compound 1, 2-{5-[4-(dimethylamino)benzylidene]-4-oxo-2-thioxo-1,3-thiazolidin-3-yl}-3-phenylpropanoic acid] gave an MIC of 12.5 µg/mL (≈ 30.3 µM).

Consider `CCN1CCc2c(sc(NC(=O)Nc3ccc(Cl)cc3)c2C(N)=O)C1` [Compound 9, 2-({[(4-chlorophenyl)amino]carbonyl}amino)-6-ethyl-4,5,6,7-tetrahydrothieno[2,3-c]pyridine-3-carboxamide], for which the minimum inhibitory concentration (MIC) amounted to 100 µg/mL (≈ 264 µM).

Molecule `O=C1c2ccccc2-c2onc3ccc(Cl)c1c23` [Compound 5, 5-chloro-6H-anthra[1,9-cd]isoxazol-6-one] yielded a minimum inhibitory concentration (MIC) of 6.25 µg/mL (≈ 24.4 µM).

On to `Cc1ccc(Nc2nc3nonc3nc2N)c(C)c1` [Compound 4, N-(2,4-dimethylphenyl)[1,2,5]oxadiazolo [3,4-b]pyrazine-5,6-diamine], for which the MIC is 12.5 µg/mL (≈ 48.8 µM).

In turn, `COc1ccc(/C=C\C(=O)C2C(=O)c3ccccc3C2=O)cc1` [Compound 10] displayed an MIC of 100 µg/mL (≈ 326 µM).
